Results on 39 molecules are retold here after US20250230171A1 (MOMA Therapeutics, Inc., priority 2023, published 2025).

Sequence of biotinylated Avi-POLθ[2-894] (O75417 2-894): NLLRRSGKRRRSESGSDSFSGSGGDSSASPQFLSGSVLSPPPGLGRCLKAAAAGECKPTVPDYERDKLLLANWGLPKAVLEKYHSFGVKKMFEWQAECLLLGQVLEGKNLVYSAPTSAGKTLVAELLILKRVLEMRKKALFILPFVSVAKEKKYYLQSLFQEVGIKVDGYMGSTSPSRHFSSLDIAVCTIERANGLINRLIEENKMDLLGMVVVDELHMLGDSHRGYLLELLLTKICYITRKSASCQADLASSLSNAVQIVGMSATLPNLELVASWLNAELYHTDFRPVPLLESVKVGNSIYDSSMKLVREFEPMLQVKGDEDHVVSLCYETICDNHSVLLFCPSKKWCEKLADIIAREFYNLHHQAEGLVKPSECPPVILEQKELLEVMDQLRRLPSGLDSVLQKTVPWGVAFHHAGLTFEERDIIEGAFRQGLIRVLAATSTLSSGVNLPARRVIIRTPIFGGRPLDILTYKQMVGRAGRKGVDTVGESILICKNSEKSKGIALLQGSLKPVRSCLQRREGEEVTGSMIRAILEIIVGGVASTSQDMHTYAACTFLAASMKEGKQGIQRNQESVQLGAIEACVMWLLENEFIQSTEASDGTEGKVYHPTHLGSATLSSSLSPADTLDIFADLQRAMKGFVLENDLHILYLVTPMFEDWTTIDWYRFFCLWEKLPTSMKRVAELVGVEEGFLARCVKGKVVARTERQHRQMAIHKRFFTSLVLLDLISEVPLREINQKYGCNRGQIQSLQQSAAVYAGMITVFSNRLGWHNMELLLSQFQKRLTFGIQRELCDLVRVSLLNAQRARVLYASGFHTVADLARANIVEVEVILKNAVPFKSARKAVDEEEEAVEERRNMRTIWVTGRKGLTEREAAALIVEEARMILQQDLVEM

The target of one assay is biotinylated Avi-POLθ[2-894] (Homo sapiens (Human), UniProt O75417). Description: POLθ ATPase assay (ADP-Glo). Particulars: POLθ ATPase, ADP-Glo; n=2; read-out: Biochemical ATPase ADPGlo IC50. The procedure:
In some embodiments, the ATPase assay a compound of the present disclosure is combined with biotinylated Avi-POLθ[2-894], a 50 nucleotide poly-thymine repeat single-stranded DNA, and ATP in buffer. In some embodiments, the mixture is incubated and ADP-Glo Reagent added, followed by a subsequent incubation. In some embodiments, a Kinase Detection Reagent may be added, followed by a third incubation. In some embodiments, the activity is measured via luminescence signal (e.g., measured with the EnVision multimode plate reader). POLθ-mediated ATP hydrolysis was measured using the ADP-Glo Kinase Assay (Promega Corporation, Madison, WI). Reactions were performed in white 384-well small-volume microplates (Greiner Bio-One, Frickenhausen, Germany) using a total volume of 15 μL. The ATPase reaction consisted of 1 nM biotinylated Avi-POLθ[2-894], 5 nM of a 50 nucleotide poly-thymine repeat single-stranded DNA (PolyT(50) ssDNA), and 100 μM ATP in 5 μL of assay buffer (50 mM Tris, pH 7.5, 80 mM KCl, 10 MgCl2, 1 mM DTT, 5% glycerol, 0.01% BSA, 0.01% Tween-20). Inhibition of POLΘATPase activity was determined by preparing 11-point serial dilutions of the test compounds in 100% DMSO, then transferring 30 nL of the compounds into the ATPase reaction using an Echo acoustic liquid handler (Beckman Coulter, Brea, CA). DMSO-treated wells containing either all of the reaction components (1 nM biotinylated Avi-POLθ[2-894], 5 nM PolyT(50) ssDNA, 100 μM ATP) or with assay buffer substituted for the biotinylated Avi-POLθ[2-894](0 nM biotinylated Avi-POLθ[2-894], 5 nM PolyT(50) ssDNA, 100 μM ATP) were used to define the maximum and minimum response in the assay. Following a one-hour incubation at ambient temperature, 5 μL of ADP-Glo Reagent was added to the ATPase reaction, and this mixture was allowed to incubate at ambient temperature for an additional hour. Lastly, 5 μL of Kinase Detection Reagent was added, followed by a third one-hour incubation at ambient temperature. […] Luminescence signal was measured using the EnVision multimode plate reader (Perkin Elmer. Waltham. MA). […] Non-linear regression analysis using the four-parameter logistic equation was conducted on the percent activity values of the compound dose-responses, yielding the AC50 value for each compound. Genedata Screener (Genedata. Basel, Switzerland) was used for the data analysis.
In general terms: ADP-Glo turns the ADP formed in a reaction into a luminescent signal.
With `COc1cnc(Cl)cc1-c1cc(C)ncc1C(=O)Nc1nc2c(s1)CN(C(=O)c1cnc(OC(F)F)cn1)C2`, the IC50 is 0.001 to 0.015 µM.

Turning to `COc1cnc(Cl)cc1-c1cc(C)ncc1C(=O)Nc1nc2c(s1)C[C@H](C(=O)N[C@H]1CC[C@@H]1O)CC2`, the IC50 was in the range of 0.15 to 0.9 µM.

For `COc1cnc(Cl)cc1-c1cc(C)ncc1C(=O)Nc1nc2c(s1)C(C)N(C(=O)c1ccc(C(F)(F)F)nc1OC)C2` (single isomer, unassigned) [Example 1047, (S or R)-2′-chloro-5′-methoxy-N-(5-(2-methoxy-6-(trifluoromethyl)nicotinoyl)-6-methyl-5,6-dihydro-4H-pyrrolo[3,4-d]thiazol-2-yl)-6-methyl-[4,4′-bipyridine]-3-carboxamide], the 50% inhibitory concentration (IC50) lay within 0.15 to 0.9 µM.

Staying with this assay, now noted: n=2; read-out: Biochemical ATPase ADPGlo IC50.
For the molecule `COc1ccccc1-c1cc(C)ncc1C(=O)Nc1nc2c(s1)CNC2`, the IC50 was at least 0.9 µM.

`CCn1cc(C(=O)N2Cc3nc(NC(=O)c4cnc(C)cc4-c4cc(Cl)ncc4OC)sc3C2)cn1` [Example 62, 2′-chloro-N-(5-(1-ethyl-1H-pyrazole-4-carbonyl)-5,6-dihydro-4H-pyrrolo[3,4-d]thiazol-2-yl)-5′-methoxy-6-methyl-[4,4′-bipyridine]-3-carboxamide]: the IC50 fell in the range of 0.015 to 0.05 µM.

For `COc1ccccc1-c1cc(C)ncc1C(=O)Nc1nc2c(s1)CN(S(=O)(=O)N1CCCC1)C2`, the IC50 was in the range of 0.05 to 0.15 µM.

`COc1cnc(Cl)cc1-c1cc(C)ncc1C(=O)Nc1nc2c(s1)CC(N[C@H]1C[C@@H](O)C1)CC2` (stereo partly drawn) [Example 99, 2′-chloro-N-(6-(((1s,3s)-3-hydroxycyclobutyl)amino)-4,5,6,7-tetrahydrobenzo[d]thiazol-2-yl)-5′-methoxy-6-methyl-[4,4′-bipyridine]-3-carboxamide]: the IC50 is at least 0.9 µM.

For the molecule `COc1cnc(Cl)cc1-c1cc(C)ncc1C(=O)Nc1nc2c(s1)CN(C(=O)N1CC(O)C1)C2` [Example 149], the IC50 lay in the range of 0.05 to 0.15 µM.

As to `COc1cnc(Cl)cc1-c1cc(C)ncc1C(=O)Nc1nc2c(s1)CN(C(=O)[C@H]1CCCCO1)C2` [Example 186], the IC50 was in the range of 0.001 to 0.015 µM.

Consider `COc1cnc(Cl)cc1-c1cc(C)ncc1C(=O)Nc1nc2c(s1)CN(C(=O)c1cnn(C)c1C)C2` [Example 87, 2′-chloro-N-(5-(1,5-dimethyl-1H-pyrazole-4-carbonyl)-5,6-dihydro-4H-pyrrolo[3,4-d]thiazol-2-yl)-5′-methoxy-6-methyl-[4,4′-bipyridine]-3-carboxamide], for which the IC50 lay within 0.015 to 0.05 µM.

For the molecule `COc1ccc(C#N)cc1-c1cc(C)ncc1C(=O)Nc1nc2c(s1)CN(S(=O)(=O)C1CCC1)C2`, the half-inhibitory concentration (IC50) is 0.05 to 0.15 µM.

In the case of `COc1cnc(Cl)cc1-c1cc(C)ncc1C(=O)Nc1nc2c(s1)CN(C(=O)N1CC[C@@H](O)C1)C2` [Example 129], the IC50 is 0.001 to 0.015 µM.

Regarding `COC(=O)N1Cc2nc(NC(=O)c3cnc(C)cc3-c3ccccc3OC)sc2C1`, the half-maximal inhibitory concentration (IC50) lay within 0.15 to 0.9 µM.

`COc1cnc(Cl)cc1-c1cc(C)ncc1C(=O)Nc1nc2c(s1)CN(C(=O)[C@H]1C[C@H](O)C1)C2` [Example 187]: the IC50 was 0.001 to 0.015 µM.

Turning to `COc1cnc(Cl)cc1-c1cc(C)ncc1C(=O)Nc1nc2c(s1)CN(C(=O)c1ncccc1O)C2` [Example 71, 2′-chloro-N-(5-(3-hydroxypicolinoyl)-5,6-dihydro-4H-pyrrolo[3,4-d]thiazol-2-yl)-5′-methoxy-6-methyl-[4,4′-bipyridine]-3-carboxamide], the IC50 fell in the range of 0.001 to 0.015 µM.

Consider `COc1cnc(Cl)cc1-c1cc(C)ncc1C(=O)Nc1nc2c(s1)C[C@@H](C(=O)N1CC(O)C1)CC2`, for which the IC50 was in the range of 0.15 to 0.9 µM.

Turning to `COc1ccc(C#N)cc1-c1cc(C)ncc1C(=O)Nc1nc2c(s1)CN(S(=O)(=O)C1CCOCC1)C2`, the half-maximal inhibitory concentration (IC50) was 0.05 to 0.15 µM.

As to `COc1ccccc1-c1cc(C)ncc1C(=O)Nc1nc2c(s1)CN(C(=O)c1ncco1)C2`, the IC50 was 0.05 to 0.15 µM.

On to `COc1cnc(Cl)cc1-c1cc(C)ncc1C(=O)Nc1nc2c(s1)CN(C(=O)c1ccnn1CC(F)(F)F)C2` [Example 46, 2′-chloro-5′-methoxy-6-methyl-N-(5-(1-(2,2,2-trifluoroethyl)-1H-pyrazole-5-carbonyl)-5,6-dihydro-4H-pyrrolo[3,4-d]thiazol-2-yl)-[4,4′-bipyridine]-3-carboxamide], for which the IC50 lay within 0.001 to 0.015 µM.

As for `COc1cnc(Cl)cc1-c1cc(C)ncc1C(=O)Nc1nc2c(s1)CN(C(=O)c1ncn(C(C)C)n1)C2` [Example 77, 2′-chloro-N-(5-(1-isopropyl-1H-1,2,4-triazole-3-carbonyl)-5,6-dihydro-4H-pyrrolo[3,4-d]thiazol-2-yl)-5′-methoxy-6-methyl-[4,4′-bipyridine]-3-carboxamide], the IC50 lay in the range of 0.015 to 0.05 µM.

As for `COc1ccccc1-c1cc(C)ncc1C(=O)Nc1nc2c(s1)CN(C(=O)C1CC(=O)N1)C2` (racemic), the IC50 fell in the range of 0.15 to 0.9 µM.

Consider “N-(5-(1H-pyrazole-4-carbonyl)-5,6- dihydro-4H-pyrrolo[3,4-d]thiazol-2-yl)- 2′-chloro-5′-methoxy-6-methyl-[4,4′- bipyridine]-3-carboxamide [Example 88]”, for which the IC50 fell in the range of 0.015 to 0.05 µM.

As to `COc1cnc(Cl)cc1-c1cc(C)ncc1C(=O)Nc1nc2c(s1)CN(C(=O)c1ncccn1)C2` [Example 100, 2′-chloro-5′-methoxy-6-methyl-N-(5-(pyrimidine-2-carbonyl)-5,6-dihydro-4H-pyrrolo[3,4-d]thiazol-2-yl)-[4,4′-bipyridine]-3-carboxamide], the IC50 lay within 0.001 to 0.015 µM.

Regarding `CCn1ccc(C(=O)N2Cc3nc(NC(=O)c4cnc(C)cc4-c4cc(Cl)ncc4OC)sc3C2)n1` [Example 69, 2′-chloro-N-(5-(1-ethyl-1H-pyrazole-3-carbonyl)-5,6-dihydro-4H-pyrrolo[3,4-d]thiazol-2-yl)-5′-methoxy-6-methyl-[4,4′-bipyridine]-3-carboxamide], the IC50 lay in the range of 0.001 to 0.015 µM.

As for `COc1ccc(C#N)cc1-c1cc(C)ncc1C(=O)Nc1nc2c(s1)CN(C(=O)C1CC(OC(F)F)C1)CC2` (stereo not drawn) [Example 176], the IC50 was in the range of 0.05 to 0.15 µM.

Turning to `COc1cnc(Cl)cc1-c1cc(C)ncc1C(=O)Nc1nc2c(s1)CN(C(=O)C1CN(CC(F)(F)F)C1)C2` [Example 120], the IC50 was in the range of 0.015 to 0.05 µM.

Turning to `COc1ccccc1-c1cc(C)ncc1C(=O)Nc1nc2c(s1)COCC2`, the IC50 is at least 0.9 µM.

Consider `COc1cnc(Cl)cc1-c1cc(C)ncc1C(=O)Nc1nc2c(s1)CC(NC1CCC1)CC2` (racemic) [Example 134], for which the IC50 was in the range of 0.15 to 0.9 µM.

Consider `COc1ccc(C#N)cc1-c1cc(C)ncc1C(=O)Nc1nc2c(s1)CN(C(=O)[C@H]1CCCOC1)CC2`, for which the IC50 was at least 0.9 µM.

`COc1ccccc1-c1cc(C)ncc1C(=O)Nc1nc2c(s1)CN(C(=O)C1CCC(=O)N1)C2` (stereo not drawn): the concentration for half-maximal inhibition (IC50) was 0.15 to 0.9 µM.

As for `COc1ccccc1-c1cc(C)ncc1C(=O)Nc1nc2c(s1)CN(C(=O)c1cccnn1)C2` [Example 342, 4-(2-methoxyphenyl)~6-methyl-N-[5-(1-methyl-6-oxo-1,6-dihydropyridine-3-carbonyl)-4H,5H,6H-pyrrolo[3,4-d][1,3]thiazol-2-yl]pyridine-3-carboxamide], the IC50 is 0.15 to 0.9 µM.

Take `COc1ccccc1-c1cc(C)ncc1C(=O)Nc1nc2c(s1)CN(C(=O)c1ncccc1C#N)C2`: the IC50 was in the range of 0.05 to 0.15 µM.

Regarding `COc1cnc(Cl)cc1-c1cc(C)ncc1C(=O)Nc1nc2c(s1)CN(C(=O)c1nn(C)cc1C)C2` [Example 65, 2′-chloro-N-(5-(1,4-dimethyl-1H-pyrazole-3-carbonyl)-5,6-dihydro-4H-pyrrolo[3,4-d]thiazol-2-yl)-5′-methoxy-6-methyl-[4,4′-bipyridine]-3-carboxamide], the IC50 lay within 0.001 to 0.015 µM.

For the molecule `COc1cnc(Cl)cc1-c1cc(C)ncc1C(=O)Nc1nc2c(s1)C[C@H](C(=O)NC1CCC1)CC2` (single isomer, unassigned) [Example 27, (R or S)-2-(2′-chloro-5′-methoxy-6-methyl-[4,4′-bipyridine]-3-carboxamido)-N-cyclobutyl-4,5,6,7-tetrahydrobenzo[d]thiazole-6-carboxamide], the IC50 fell in the range of 0.015 to 0.05 µM.

As for `COc1ccc(C#N)cc1-c1cc(C)ncc1C(=O)Nc1nc2c(s1)CN(S(=O)(=O)C1CCCC1)CC2`, the IC50 was 0.15 to 0.9 µM.

On to `COc1cnc(Cl)cc1-c1cc(C)ncc1C(=O)Nc1nc2c(s1)CN(C(=O)[C@H]1CCCOC1)C2` [Example 183], for which the 50% inhibitory concentration (IC50) was in the range of 0.001 to 0.015 µM.

As for `COc1ccccc1-c1cc(C)ncc1C(=O)Nc1nc2c(s1)CN(C(=O)C1COC1)C2` [Example 256], the IC50 lay within 0.15 to 0.9 µM.

Consider `COc1cnc(Cl)cc1-c1cc(C)ncc1C(=O)Nc1nc2c(s1)CN(S(=O)(=O)C1CC1)C2` [Example 234], for which the IC50 lay within 0.001 to 0.015 µM.

Regarding `COc1ccccc1-c1cc(C)ncc1C(=O)Nc1nc2c(s1)CN(C(=O)C1CCNC1=O)C2` (stereo not drawn) [Example 345], the IC50 fell in the range of 0.15 to 0.9 µM.

Broadly, the IC50 is the concentration at which inhibition is half-maximal.
